Assay results: patent publication US6962931B2, “Self-emulsifying formulations of cholesteryl ester transfer protein inhibitors” (Pfizer Inc., priority 2001, dated 2005)

What was measured:
[1] = Emulsion from oil solution plus equal volume of water: particle size and stability; assay type: physicochemical
Experimental: An emulsion was prepared by combining 1 volume of oil solution with an equal volume of de-ionized water. […] The emulsion is then stirred continuously to maintain homogeneity.
An emulsion was prepared by combining 1 volume of oil solution with an equal volume of de-ionized water. This mixture was stirred for 10 minutes and then vortex mixed for 2 minutes. […] It was stirred continuously to maintain homogeneity.
An emulsion was prepared by combining combining 1 volume of oil solution with an equal volume of de-ionized water. This mixture was stirred for 10 minutes and then vortex mixed for 2 minutes. […] It was stirred continuously to maintain homogeneity.

[2] = PK in monkeys; assay type: in vivo, cynomologous monkeys
Description: Use of an emulsion prepared from crystalline (ethanolate) drug allowed comparible exposures to be achieved to those for more soluble amorphous drug in Miglyol® alone. Excellent dose proportionality was also obtained.

[3] = PK in rat, oils or preformed emulsions by oral gavage; set-up: species or system Sprague Dawley rats; details: Sprague-Dawley, in vivo
Description: Emulsions prepared from olive oil/surfactant provided the best results.

[4] = Equilibrium solubility in excipients, vehicles and emulsion preconcentrates; assay type: physicochemical; details: equilibrium
Experimental: The solubility of CETP inhibitors in excipients and in formulations was determined by adding an excess of compound to the medium in question. The mixture was agitated by rotation over a period of days at ambient temperature until the concentration in solution had reached an equilibrium as judged by similar measurements for consecutive time points. Concentrations were measured by filtration of aliquots with a PTFE syringe filter and assay by HPLC as described in Example 11.
The solubility of crystalline CETP inhibitors in representative vehicles was determined by adding an excess of compound to the vehicle in question. The mixture was agitated by rotation over a period of days at ambient temperature until the concentration in solution had reached equilibrium as judged by similar measurements for consecutive time points. Concentrations were measured by filtration of aliquots with a PTFE syringe filter and assayed by HPLC.
The concentrations of CETP inhibitor in each vehicle were assayed at intervals by dilution of aliquots into acetonitrile and gradient HPLC analysis on a Water Symmetry C-8 column (3.9×150 mm, 5 micron) at 30° C. at a flow rate of 1 mL/min. […] The detection method was UV absorbance at 210 nm.

average particle size of emulsion ([1]; Example 17 oil solution (Miglyol 812/propylene carbonate/Cremophor EL, 115 mg/g) plus equal volume water): less than 10 microns
average particle size of emulsion ([1]; Example 18 oil solution (olive oil/Cremophor EL, 13 mg/g) plus equal volume water): less than 10 microns
Cmax ([2]; crystalline ethanolate, Olive oil/Cremophor/water 40/10/50, 20 mg/kg, 20 mg/kg): 160 ng/mL
Cmax ([2]; monkey, in vivo, oral, 20 mg/kg, crystalline ethanolate, Olive oil/Cremophor/water 40/10/50, 20 mg/kg, read-out: Cmax): 100 ng/mL
AUC ([2]; monkey, in vivo, oral, 50 mg/kg, crystalline ethanolate, Miglyol/Cremophor/water 40/10/50, 50 mg/kg (BID)): 13000 to 15000 ng·h/mL
Cmax ([2]; monkey, in vivo, oral, 50 mg/kg, crystalline ethanolate, Miglyol/Cremophor/water 40/10/50, 50 mg/kg (BID), read-out: Cmax): 800 to 1100 ng/mL
AUC ([2]; monkey, in vivo, oral, 100 mg/kg, amorphous anhydrous, Miglyol): ~29000 ng·h/mL
Cmax ([2]; monkey, in vivo, oral, 100 mg/kg, amorphous anhydrous, Miglyol, 100 mg/kg, read-out: Cmax): ~1600 ng/mL
Cmax ([2]; monkey, in vivo, oral, 100 mg/kg, crystalline ethanolate, Miglyol, 100 mg/kg, read-out: Cmax): ~170 ng/mL
AUC ([2]; monkey, in vivo, oral, 100 mg/kg, crystalline ethanolate, Miglyol/Cremophor/water 40/10/50, 100 mg/kg (BID)): 24000 to 29000 ng·h/mL
Cmax ([2]; monkey, in vivo, oral, 100 mg/kg, crystalline ethanolate, Miglyol/Cremophor/water 40/10/50, 100 mg/kg (BID), read-out: Cmax): 1600 to 2300 ng/mL
Cmax ([2]; monkey, in vivo, oral, 100 mg/kg, crystalline ethanolate, Miglyol/Cremophor/water 40/10/50, 100 mg/kg, read-out: Cmax): 400 to 1800 ng/mL
Cmax ([3]; 100 mg/kg, crystalline ethanolate, Miglyol/Cremophor/0.5% HPMCAS 40/10/50, 100 mg/kg): 1600 ng/mL
AUC(0-t) ([3]; 100 mg/kg, crystalline ethanolate, Miglyol/Cremophor/0.5% HPMCAS 40/10/50, 100 mg/kg, Tlast = 24 hr): 15000 ng·h/mL
AUC(0-t) ([3]; 100 mg/kg, crystalline ethanolate, Miglyol/Cremophor/water 40/10/50, 100 mg/kg, Tlast = 24 hr): 23000 ng·h/mL
Cmax ([3]; 100 mg/kg, crystalline ethanolate, Miglyol/Cremophor/water 40/10/50, 100 mg/kg, conc. in oil 100 mg/mL): 1900 ng/mL
Cmax ([3]; 100 mg/kg, crystalline ethanolate, Olive oil/Cremophor 80/20, 100 mg/kg): 3600 ng/mL
AUC(0-t) ([3]; 100 mg/kg, crystalline ethanolate, Olive oil/Cremophor 80/20, 100 mg/kg, Tlast = 24 hr): 45000 ng·h/mL
AUC(0-t) ([3]; 100 mg/kg, crystalline ethanolate, Olive oil/Cremophor/water 40/10/50, 100 mg/kg, Tlast = 9 hr): 33000 ng·h/mL
Cmax ([3]; 100 mg/kg, crystalline ethanolate, Olive oil/Cremophor/water 40/10/50, 100 mg/kg, conc. in oil 20 mg/mL): 6200 ng/mL
Cmax ([3]; 300 mg/kg, amorphous anhydrous, Olive oil): 7300 ng/mL
AUC(0-t) ([3]; 300 mg/kg, amorphous anhydrous, Olive oil, Tlast = 24 hr): 50000 ng·h/mL
Cmax ([3]; 375 mg/kg, crystalline ethanolate, Olive oil/caprylic acid/Cremophor/water 10/30/10/50, 375 mg/kg): 4100 ng/mL
AUC(0-t) ([3]; 375 mg/kg, crystalline ethanolate, Olive oil/caprylic acid/Cremophor/water 10/30/10/50, 375 mg/kg, Tlast = 9 hr): 21000 ng·h/mL
Cmax ([3]; 500 mg/kg, crystalline ethanolate, Miglyol): 2100 ng/mL
AUC(0-t) ([3]; 500 mg/kg, crystalline ethanolate, Miglyol, Tlast = 24 hr): 27000 ng·h/mL
AUC(0-t) ([3]; 500 mg/kg, crystalline ethanolate, Miglyol/Cremophor/water 40/10/50, 500 mg/kg, Tlast = 9 hr): 18000 ng·h/mL
Cmax ([3]; 500 mg/kg, crystalline ethanolate, Miglyol/Cremophor/water 40/10/50, 500 mg/kg, conc. in oil 100 mg/mL): 4600 ng/mL
Cmax ([3]; 625 mg/kg, crystalline ethanolate, Olive oil/caprylic acid/triacetin/Cremophor/water 10/15/15/10/50, 625 mg/kg): 4800 ng/mL
AUC(0-t) ([3]; 625 mg/kg, crystalline ethanolate, Olive oil/caprylic acid/triacetin/Cremophor/water 10/15/15/10/50, 625 mg/kg, Tlast = 9 hr): 26000 ng·h/mL
Solubility ([4]; ambient temperature, vehicle Water): <0.00004 mgA/ml
Solubility ([4]; Miglyol 812/EtOH/Cremophor EL (76/4/20)): 89 mgA/ml
Solubility ([4]; Miglyol 812/Ethyl lactate/Cremophor EL 30/50/20): 256 mgA/ml
Solubility ([4]; Miglyol 812/Ethyl lactate/Cremophor EL 40/40/20): 221 mgA/ml
Solubility ([4]; Miglyol 812/Ethyl lactate/Cremophor EL 50/30/20): 196 mgA/ml
Solubility ([4]; Miglyol 812/Ethyl lactate/Cremophor EL 60/20/20): 143 mgA/ml
Solubility ([4]; Miglyol 812/Ethyl lactate/Cremophor EL 65/15/20): 120 mgA/ml
Solubility ([4]; Miglyol 812/Ethyl lactate/Cremophor EL 70/10/20): 99 mgA/ml
Solubility ([4]; Miglyol 812/Ethyl lactate/Cremophor EL 72/8/20): 94 mgA/ml
Solubility ([4]; Miglyol 812/Ethyl lactate/Labrasol (72/8/20)): 98 mgA/ml
Solubility ([4]; Miglyol 812/Ethyl lactate/Tagat TO (72/8/20)): 87 mgA/ml
Solubility ([4]; Miglyol 812/Peppermint Oil/Cremophor EL (72/8/20)): 72 mgA/ml
Solubility ([4]; Miglyol 812/Propylene carbonate/Cremophor EL 30/50/20): 228 mgA/ml
Solubility ([4]; Miglyol 812/Propylene carbonate/Cremophor EL 40/40/20): 209 mgA/ml
Solubility ([4]; Miglyol 812/Propylene carbonate/Cremophor EL 55/25/20): 158 mgA/ml
Solubility ([4]; Miglyol 812/Propylene carbonate/Cremophor EL 72/8/20): 108 mgA/ml
Solubility ([4]; Miglyol 812/Propylene carbonate/Labrasol (72/8/20)): 116 mgA/ml
Solubility ([4]; Miglyol 812/Propylene carbonate/Tagat TO (72/8/20)): 111 mgA/ml
Solubility ([4]; Miglyol 812/Triacetin/Cremophor EL 30/50/20): 198 mgA/ml
Solubility ([4]; Miglyol 812/Triacetin/Cremophor EL 40/40/20): 183 mgA/ml
Solubility ([4]; Miglyol 812/Triacetin/Cremophor EL 50/30/20): 158 mgA/ml
Solubility ([4]; Miglyol 812/Triacetin/Cremophor EL 60/20/20): 133 mgA/ml
Solubility ([4]; Miglyol 812/Triacetin/Cremophor EL 65/15/20): 111 mgA/ml
Solubility ([4]; Miglyol 812/Triacetin/Cremophor EL 72/8/20): 94 mgA/ml
Solubility ([4]; vehicle Capmul MCM): 41 mgA/ml
Solubility ([4]; vehicle Cremophor EL): 20 mgA/ml
Solubility ([4]; vehicle Dimethylisosorbide): 439 mgA/ml
Solubility ([4]; vehicle Ethyl lactate): 400 mgA/ml
Solubility ([4]; vehicle Glycofurol): 99 mgA/ml
Solubility ([4]; vehicle Labrafil M 1944): 26 mgA/ml
Solubility ([4]; vehicle Labrafil M 2125): 27 mgA/ml
Solubility ([4]; vehicle Labrasol): 41 mgA/ml
Solubility ([4]; vehicle Lauroglycol FCC): 70 mgA/ml
Solubility ([4]; vehicle Maisine 35-1): 9 mgA/ml
Solubility ([4]; vehicle Miglyol 812): 65 mgA/ml
Solubility ([4]; vehicle Miglyol 812/Capmul MCM (80/20)): 74 mgA/ml
Solubility ([4]; vehicle Miglyol 812/Capmul MCM/Polysorbate 80 (20/60/20)): 63 mgA/ml
Solubility ([4]; vehicle Miglyol 812/Capmul MCM/Polysorbate 80 (40/40/20)): 58 mgA/ml
Solubility ([4]; vehicle Miglyol 812/Cremophor EL 80/20): 68 mgA/ml
Solubility ([4]; vehicle Miglyol 812/Labrafil M 1944 (80/20)): 59 mgA/ml
Solubility ([4]; vehicle Miglyol 812/Labrafil M 2125 (80/20)): 57 mgA/ml
Solubility ([4]; vehicle Miglyol 812/Labrasol (80/20)): 69 mgA/ml
Solubility ([4]; vehicle Miglyol 812/Peppermint oil (80/20)): 93 mgA/ml
Solubility ([4]; vehicle Miglyol 812/Peppermint oil (90/10)): 79 mgA/ml
Solubility ([4]; vehicle Miglyol 812/Tagat TO (80/20)): 58 mgA/ml
Solubility ([4]; vehicle Miglyol 812/propylene carbonate/Cremophor EL (60/20/20)): 146 mgA/ml
Solubility ([4]; vehicle Miglyol 812/triacetin (90/10), not completely miscible): 106 mgA/ml
Solubility ([4]; vehicle N-methyl-2-pyrrolidone): 813 mgA/ml
Solubility ([4]; vehicle Oleic acid): 8.5 mgA/ml
Solubility ([4]; vehicle Olive oil): 17 mgA/ml
Solubility ([4]; vehicle Olive oil/Capmul MCM (80/20)): 23 mgA/ml
Solubility ([4]; vehicle Olive oil/Peppermint oil (90/10)): 25 mgA/ml
Solubility ([4]; vehicle Peceol): 10 mgA/ml
Solubility ([4]; vehicle Plurol Oleique CC 497): 17 mgA/ml
Solubility ([4]; vehicle Pluronic L-44): 36 mgA/ml
Solubility ([4]; vehicle Polysorbate 80 (Tween 80)): 23 mgA/ml
Solubility ([4]; vehicle Propylene carbonate): 227 mgA/ml
Solubility ([4]; vehicle Tagat TO (Polyoxyethylene glycerol trioleate)): 32 mgA/ml
Solubility ([4]; vehicle Transcutol P): 174 mgA/ml
Solubility ([4]; vehicle Triacetin): 235 mgA/ml
Solubility ([4]; vehicle Triethyl citrate): 240 mgA/ml
Solubility ([4]; vehicle peppermint oil): 266 mgA/ml
Compound: CCOC(=O)N1c2ccc(C(F)(F)F)cc2[C@@H](N(Cc2cc(C(F)(F)F)cc(C(F)(F)F)c2)C(=O)OC)C[C@H]1CC [Compound A, [2R,4S] 4-[(3,5-bis-trifluoromethyl-benzyl)-methoxycarbonyl-amino]-2-ethyl-6-trifluoromethyl-3,4-dihydro-2H-quinoline-1-carboxylic acid ethyl ester]
chemical degradation or crystallization ([1]; Example 17 oil after storage for 8 days or emulsion after 24 hr): No chemical degradation based on HPLC analysis or crystallization based on microscopic examination was detected
chemical degradation or crystallization ([1]; Example 18 oil after storage for 8 days or emulsion after 24 hr): No chemical degradation based on HPLC analysis or crystallization based on microscopic examination was detected
